From article PMC8304783, “Antiadhesive Properties of Imidazolium Ionic Liquids Based on (−)-Menthol Against Candida spp” (International Journal of Molecular Sciences, 2021)

What was measured:
Assay type in all cases: cell-based
[1] = test system: C. albicans B4 and Gu5 isolates; assay: Biofilm of clinical isolates on acrylic dental crowns (crystal violet); settings: B4 and Gu5 (FLC-resistant); 72 h biofilm, then ILs 25 μM for 2 h
Description: (§1) To assess the influence of ILs on biofilm formation by C. albicans strain SC5314 on dentures, the following materials were used: acrylic dental crowns, porcelain-fused-to-metal (PFMs) dental crowns and dental alloy substructures. All dentures were kind gifts from Prof. M. Łukaszewicz (Wrocław, Poland). Prior to the experiments, the dentures were sterilized by 1 h incubation in 70% pure ethanol (EtOH) solution, washed with sterile water to remove EtOH residues and dried under aseptic conditions. The experiments were performed by aseptically placing dentures in YPD, supplemented with FBS, and inoculating them with YPD-grown C. albicans suspension (0.01% Vol/Vol). After 72 h of incubation at 37 °C, the dentures were treated for 2 h with the addition of ILs (conc. = 25 µM), washed with PBS and fixed with 0.1% CV solution for 10 min, then washed with PBS to remove the stain residue. The dentures were then dried and photographed. Microscopic preparations were made of biofilm samples which were imaged using the Zeiss Axio Imager A2 microscope equipped with Zeiss Axiocam 503 mono microscope camera.
Figure S1. Detachment of adherent C. albicans clinical isolates after 2 h incubation on polystyrene surfaces by ionic liquids (ILs) (means ± SD; n = 3). Results are presented as percentage of adherent cells relative to untreated controls (100% adhesion). Statistical analysis of detachment at each concentration was performed towards corresponding control experiments (isolates untreated by ILs=100% adhesion) (*, p < 0.05; **, p < 0.01 […]
We selected C. albicans B4 and Gu5 isolates for evaluating the ability of ILs to eradicate biofilm formation on acrylic dental crowns (Figure S2). Both the strains were chosen due to their FLC‐resistance status. An IL concentration of 25 μM was selected for this investigation. In each condition, a C. albicans biofilm was formed after 72 h incubation, and the collected biomass was microscopically evaluated for the presence of hyphae, pseudohyphae and blastoconidia characteristic of C. albicans (Figure S2). […]

[2] = test system: C. albicans strain SC5314; assay: Biofilm formation on dentures (crystal violet); settings: for C. albicans biofilm on PFM dental crowns (CV staining) / C. albicans biofilm on acrylic dental crowns (CV staining) / C. albicans biofilm on dental alloy substructures (CV staining): 72 h biofilm, then ILs 25 µM for 2 h; for Visual eradication of C. albicans biofilm formed on dentures: dentures of different materials taken together, ILs 25 µM, 2 h
Description: We evaluated the ability of ILs to eradicate C. albicans biofilm formation on a number of dentures, namely acrylic dental crowns, PFM dental crowns and dental alloy substructures (Figure 2). This approach has the following disadvantage: impossibility of reliable biofilm quantification. However, during in vivo Candida spp. infections and biofilm formation, the fungi attach themselves into porous structure of dentures, and thus we selected them for the studies over commonly used discs. Here, an IL concentration of 25 µM was selected for this investigation. In each condition, a C. albicans biofilm was formed after 72 h incubation, and the collected biomass was microscopically evaluated for the presence of hyphae, pseudohyphae and blastoconidia characteristic of C. albicans (Figure 2). Next, the materials were treated with ILs for 2 h and stained with crystal violet (CV). […] Microscopic observations of the stained biomass from dentures exposed to both 1a and 1b (Figure 2, white arrows) confirmed the presence of C. albicans hyphae and blastoconidia (data not shown).
as §1

[3] = test system: C. parapsilosis; assay: Detachment of adherent cells from polystyrene (crystal violet); settings: C. parapsilosis on polystyrene, 2 h treatment, 2 × MIC and 4 × MIC
Description: (§2) Thus, for the evaluation of ILs on fungal adhesion, higher concentrations were used, corresponding to 1, 2 and 4 times the MIC90 values (Figure 1).
(§3) Figure 1 Detachment of adherent Candida spp. cells after 2 h incubation on polystyrene surfaces by ionic liquids (ILs) (A) or amphotericin B (AMB) (B) (means ± SD; n = 3). Results are presented as percentage of adherent cells relative to untreated controls (100% adhesion). Statistical analysis of detachment at each concentration was performed towards corresponding control experiments (fungi untreated by ILs or AMB = 100% adhesion) (*, p < 0.05 and **, p < 0.01).
(§4) Post-adherence treatment with ILs was performed in a similar manner to that described previously by our team. Candida spp. suspensions were prepared by centrifuging YPD-grown cultures and resuspending fungal mass in PBS to an OD600 = 0.6. Sterile 96-well plates were inoculated with the prepared suspensions and incubated for 2 h at 37 °C to induce fungal adhesion. Afterwards, adherent cells were washed with PBS to remove planktonic cells and treated with ILs (concentrations equivalent to 1, 2 or 4 × MIC90 for each fungi) for 2 h at 37 °C. Then, each well was washed with PBS and adherent cells were fixed with 0.1% CV solution for 5 min, and washed with PBS. Cells were then treated with a solution of isopropanol 0.04 N HCL with 0.1% SDS to permeabilize adherent cells and release the CV dye. The absorbance of CV was measured at 590 nm (ASYS UVM 340 Biogenet). The percentage of cells that were removed was determined in comparison to adherent cells treated with PBS only (designated 100% adhesion).

[4] = test system: C. krusei; assay: as above; settings: C. krusei on polystyrene, 2 h treatment; over MIC, 2 × MIC and 4 × MIC
Description: as §2, §3, §4

[5] = test system: C. glabrata; assay: as above; settings: C. glabrata on polystyrene, 2 h treatment
Description: as §2, §3, §4

[6] = test system: C. albicans; assay: as above; settings: C. albicans on polystyrene, 2 h treatment; over MIC, 2 × MIC and 4 × MIC
Description: as §2, §3, §4

[7] = highest concentration (4 × MIC)

Compound	Biofilm of clinical isolates on acrylic dental crowns (CV staining) [1]	C. albicans biofilm on PFM dental crowns (CV staining) [2]	C. albicans biofilm on acrylic dental crowns (CV staining) [2]	C. albicans biofilm on dental alloy substructures (CV staining) [2]	Visual eradication of C. albicans biofilm formed on dentures [2]	Reduction of adhesion ([3]; over MIC)	Reduction of adhesion [4]	Reduction of adhesion [5, 7]	Reduction of adhesion [6]	Reduction of adhesion [3]	Reduction of adhesion ([5]; 2 × MIC and 4 × MIC)
CCCCCCCCCn1cc[n+](CO[C@@H]2C[C@H](C)CC[C@H]2C(C)C)c1 [1a, 1-[(1R,2S,5R)-(−)-menthoxymethyl]-3-nonylimidazolium chloride]	residual CV staining	residual CV staining was observed	residual CV staining was observed	residual CV staining was observed	partially	did not influence the adherent properties	approximately 10%	~ 40%	did not influence the adherent properties	–	–
CCCCCCCCCCn1cc[n+](CO[C@@H]2C[C@H](C)CC[C@H]2C(C)C)c1 [1b, 3-decyl-1-[(1R,2S,5R)-(−)-menthoxymethyl]imidazolium chloride]	residual CV staining	residual CV staining was observed	residual CV staining was observed	residual CV staining was observed	partially	–	did not significantly reduce	–	20–25%	20–25%	~ 20%
CCCCCCCCCOCn1cc[n+](CO[C@@H]2C[C@H](C)CC[C@H]2C(C)C)c1 [2a, 1-(1R,2S,5R)-(−)-menthoxymethyl-3-nonyloxymethylimidazolium chloride]	prote ct ed	did not fully protect	protected	protected	totally	30–40%	10–20%	approximately 45%	20–30%	–	–
